From US7902249B2, “Indole derivatives substituted with long-chain alcohols and medicaments containing them” (Meiji Dairies Corporation, priority 2002, dated 2011)
Entries after “also recorded” stand apart in the source; their conditions may differ. Blank lines part the entries; values can stand above or below the compound they belong to.

Assays:
[1] = test system: Human neuroblastoma cells, Lan-1; test: Induction of proliferation, differentiation and apoptosis of neuroblastoma cells; assay type: cell-based; parameters: key to Apoptosis / Proliferation / Differentiation: ++++: Extremely strongly stimulated (reinforced).; +++: Very strongly stimulated (reinforced).; ++: Strongly stimulated (reinforced).; +: Stimulated (reinforced).; +/−: No change.; −: Decreased (weakened); conditions: for effects on induction of differentiation or apoptosis versus proliferation: Lan-1 cells, summary of Table 1
Excerpt: Human neuroblastoma cells, Lan-1 (Lan-1: a human neuroblastoma cell line with M1 and M2 muscarinic receptors conjugated with intracellular Ca^2+) were used to investigate the effects of the present compounds on the induction of proliferation, differentiation and apoptosis.

human blood cells = test: Preventive effect on hemolysis in human blood cells induced by free radicals; assay type: cell-based; conditions: compared with control group (FIG. 2)
Protocol: An experiment was conducted in accordance with the method of D. Blache. FASEB J. et al. (E. Bourdon, N. Loreau & D. Blache. FABES J. “Glucose and free radicals impair the antioxidant properties of serum albumin”, 13, 233-244(1999)). The time required for 50% hemolysis (HT50) was measured and the extension of the time required for HT50 compared with that of a control group was plotted on a graph. In this experiment, Vitamin E was employed as a positive control.

[2] = test system: Fetal rat neurons in primary cultures; test: Effect on neurite outgrowth and neuron survival; assay type: cell-based; conditions: 10^−6 and 10^−7 M, incubation for 3 days, versus control group (FIG. 1)
Protocol: This experiment was conducted in accordance with the method of Luu, et al. (C. Girlanda-Junges, F. Keyling-Bilger, G. Schemitt & B. Luu, “Effect of Cyclohexenonic Long Chain Fatty Alcohols on Neurite Outgrowth. Study on Structure-Activity Relationship”, Tetrahedron, 54, 7735-77481998)). Fetal rat neurons in primary cultures were treated with Compound 1 at the concentrations of 10^−6 and 10^−7 M, followed by incubation for 3 days.

SMILES: OCCCCCCCCCCc1c[nH]c2ccccc12 [Compound 3, 3-(10-hydroxydecyl)indole]
- Apoptosis ([1]; Day 1, 0.1 μM): −
- Differentiation ([1]; Day 1, 0.1 μM): +
- Proliferation ([1]; Day 1, 0.1 μM): +
- Apoptosis ([1]; Day 1, 10 μM): −
- Differentiation ([1]; Day 1, 10 μM): +++
- Proliferation ([1]; Day 1, 10 μM): +/−
- Apoptosis ([1]; Day 1, 100 μM): ++
- Differentiation ([1]; Day 1, 100 μM): +
- Proliferation ([1]; Day 1, 100 μM): −
- Apoptosis ([1]; Day 2, 0.1 μM): −
- Differentiation ([1]; Day 2, 0.1 μM): +
- Proliferation ([1]; Day 2, 0.1 μM): +
- Apoptosis ([1]; Day 2, 10 μM): +
- Differentiation ([1]; Day 2, 10 μM): ++
- Proliferation ([1]; Day 2, 10 μM): +/−
- Apoptosis ([1]; Day 2, 100 μM): ++
- Differentiation ([1]; Day 2, 100 μM): +
- Proliferation ([1]; Day 2, 100 μM): +/−
- Apoptosis ([1]; Day 5, 0.1 μM): +/−
- Differentiation ([1]; Day 5, 0.1 μM): −
- Proliferation ([1]; Day 5, 0.1 μM): +
- Apoptosis ([1]; Day 5, 10 μM): +
- Differentiation ([1]; Day 5, 10 μM): ++
- Proliferation ([1]; Day 5, 10 μM): +/−
- Apoptosis ([1]; Day 5, 100 μM): ++
- Differentiation ([1]; Day 5, 100 μM): +++
- Proliferation ([1]; Day 5, 100 μM): +/−
- Apoptosis ([1]; Day 7, 0.1 μM): +/−
- Differentiation ([1]; Day 7, 0.1 μM): +/−
- Proliferation ([1]; Day 7, 0.1 μM): ++
- Apoptosis ([1]; Day 7, 10 μM): +
- Differentiation ([1]; Day 7, 10 μM): +++
- Proliferation ([1]; Day 7, 10 μM): +/−
- Apoptosis ([1]; Day 7, 100 μM): ++++
- effects on induction of differentiation or apoptosis versus proliferation [1]: stronger effects on induction of differentiation or apoptosis of neuroblastoma cells rather than on proliferation

SMILES: OCCCCCCCCCCCc1c[nH]c2ccccc12 [Compound 4, 3-(11-hydroxyundecyl)indole]
- Apoptosis ([1]; Day 1, 0.1 μM): −
- Differentiation ([1]; Day 1, 0.1 μM): −
- Proliferation ([1]; Day 1, 0.1 μM): ++
- Apoptosis ([1]; Day 1, 10 μM): −
- Differentiation ([1]; Day 1, 10 μM): ++
- Proliferation ([1]; Day 1, 10 μM): +
- Apoptosis ([1]; Day 1, 100 μM): +++
- Differentiation ([1]; Day 1, 100 μM): +
- Proliferation ([1]; Day 1, 100 μM): +/−
- Apoptosis ([1]; Day 2, 0.1 μM): −
- Differentiation ([1]; Day 2, 0.1 μM): +
- Proliferation ([1]; Day 2, 0.1 μM): +
- Apoptosis ([1]; Day 2, 10 μM): +
- Differentiation ([1]; Day 2, 10 μM): ++
- Proliferation ([1]; Day 2, 10 μM): +/−
- Apoptosis ([1]; Day 2, 100 μM): +++
- Differentiation ([1]; Day 2, 100 μM): −
- Proliferation ([1]; Day 2, 100 μM): −
- Apoptosis ([1]; Day 5, 0.1 μM): −
- Differentiation ([1]; Day 5, 0.1 μM): +/−
- Proliferation ([1]; Day 5, 0.1 μM): +/−
- Apoptosis ([1]; Day 5, 10 μM): −
- Differentiation ([1]; Day 5, 10 μM): ++
- Proliferation ([1]; Day 5, 10 μM): +/−
- Apoptosis ([1]; Day 5, 100 μM): +
- Differentiation ([1]; Day 5, 100 μM): ++++
- Proliferation ([1]; Day 5, 100 μM): +
- Apoptosis ([1]; Day 7, 0.1 μM): −
- Differentiation ([1]; Day 7, 0.1 μM): +/−
- Proliferation ([1]; Day 7, 0.1 μM): ++
- Apoptosis ([1]; Day 7, 10 μM): +/−
- Differentiation ([1]; Day 7, 10 μM): ++
- Proliferation ([1]; Day 7, 10 μM): +/−
- Apoptosis ([1]; Day 7, 100 μM): ++++
- effects on induction of differentiation or apoptosis versus proliferation [1]: stronger effects on induction of differentiation or apoptosis of neuroblastoma cells rather than on proliferation
- extension of the time required for 50% hemolysis (HT50) (human blood cells): extended HT50; also recorded: strong effect

- melting point: 79 to 80 °C
SMILES: OCCCCCCCCCCCCCCCCc1c[nH]c2ccccc12 [Compound 1, 3-(16-hydroxyhexadecyl)indole]
- proportion of the neurons with neurites of 50 μm or longer [2]: higher in the treated group than in the control group
- Apoptosis ([1]; Day 1, 0.1 μM): −
- Differentiation ([1]; Day 1, 0.1 μM): +/−
- Proliferation ([1]; Day 1, 0.1 μM): +
- Apoptosis ([1]; Day 1, 10 μM): +/−
- Differentiation ([1]; Day 1, 10 μM): ++
- Proliferation ([1]; Day 1, 10 μM): +
- Apoptosis ([1]; Day 1, 100 μM): +
- Differentiation ([1]; Day 1, 100 μM): +++
- Proliferation ([1]; Day 1, 100 μM): +/−
- Apoptosis ([1]; Day 2, 0.1 μM): −
- Differentiation ([1]; Day 2, 0.1 μM): +/−
- Proliferation ([1]; Day 2, 0.1 μM): ++
- Apoptosis ([1]; Day 2, 10 μM): +/−
- Differentiation ([1]; Day 2, 10 μM): +++
- Proliferation ([1]; Day 2, 10 μM): +
- Apoptosis ([1]; Day 2, 100 μM): +
- Differentiation ([1]; Day 2, 100 μM): ++++
- Proliferation ([1]; Day 2, 100 μM): −
- Apoptosis ([1]; Day 5, 0.1 μM): −
- Differentiation ([1]; Day 5, 0.1 μM): +/−
- Proliferation ([1]; Day 5, 0.1 μM): +/−
- Apoptosis ([1]; Day 5, 10 μM): ++
- Differentiation ([1]; Day 5, 10 μM): +++
- Proliferation ([1]; Day 5, 10 μM): +/−
- Apoptosis ([1]; Day 5, 100 μM): +++
- Differentiation ([1]; Day 5, 100 μM): +
- Proliferation ([1]; Day 5, 100 μM): −
- Apoptosis ([1]; Day 7, 0.1 μM): +/−
- Differentiation ([1]; Day 7, 0.1 μM): +
- Proliferation ([1]; Day 7, 0.1 μM): +/−
- Apoptosis ([1]; Day 7, 10 μM): ++
- Differentiation ([1]; Day 7, 10 μM): ++++
- Proliferation ([1]; Day 7, 10 μM): +/−
- Apoptosis ([1]; Day 7, 100 μM): +++
- Differentiation ([1]; Day 7, 100 μM): ++
- Proliferation ([1]; Day 7, 100 μM): −
- effects on induction of differentiation or apoptosis versus proliferation [1]: stronger effects on induction of differentiation or apoptosis of neuroblastoma cells rather than on proliferation
- extension of the time required for 50% hemolysis (HT50) (human blood cells): extended HT50

SMILES: OCCc1c[nH]c2ccccc12 [Compound 2, 3-(2-hydroxyethyl)indole]
- extension of the time required for 50% hemolysis (HT50) (human blood cells): extended HT50
